In patent publication US11464763B2, “Parasiticidal compositions comprising an isoxazoline active agent, methods and uses thereof” (BOEHRINGER INGELHEIM ANIMAL HEALTH USA INC., priority 2011, dated 2022):

What was measured:
Type in all cases: in vivo
Ctenocephalides felis = experiment: Spot-on efficacy against Ctenocephalides felis fleas on dogs, 40% DES/DMI (Example 5); conditions: 4.0 mg/kg
Procedure: The efficacy of a formulation comprising an isoxazoline compound (Cmpd. A) in a carrier comprising 40% DES/DMI against Ctenocephalides felis fleas and Rhipicephalus sanguineus ticks in Dogs was studied. […] Three treatment groups containing three dogs each were evaluated. All dogs were treated once topically on Day 0 by parting the hair and applying the solution from a syringe directly onto the skin in a single spot on the midline of the neck between the base of the skull and the shoulder blades.
Treatment Group 1 was a placebo control and received 0.067 mL/kg of body weight. Treatment Group 2 was administered a topical spot-on formulation comprising 6.0% (w/v) Cmpd. A in 40% DES/DMI to deliver a dose of 4.0 mg/kg body weight. Treatment Group 3 was administered a topical spot-on formulation comprising 12% (w/v) Cmpd. A in 40% DES/DMI to deliver a dose of 4.0 mg/kg body weight.
All dogs were infested with approximately 100 C. felis on Days −1, 7, 14, 21, 28, 35 and 42. Fleas were counted upon removal from dogs approximately 24 hours post infestation on Days 1, 8, 15, 22, 29, 36 and 43. The % reduction (efficacy) of each Treatment Group over time is listed in Tables 6A, 6B and 7, respectively.

Haematobia irritans = experiment: Pour-on efficacy against Haematobia irritans (horn fly) in cattle (Example 14); conditions: for % Reduction: Group 2: pour-on 10% in DES, 1 ml/10 kg
Procedure: The efficacy of a pour-on formulation of the invention comprising isoxazoline Compound A was tested and compared with an untreated control. Two healthy, female Angus crossbread cattle of one year of age weighing between 224 to 330 kg were used in each study group. Cattle in Group 1 were untreated (control) and cattle in Group 2 were treated with a pour-on formulation comprising Compound A at a concentration of 10% (w/v) in DES at a dose of 1 ml/10 kg once on Day 0. The formulation was applied by measuring the required amount of the solution into a marked disposable syringe and applying the material evenly along the mid-line of the back of each animal from the withers to the tail head. Each animal was infested with approximately 200 horn flies released into each of the animal rooms on Day 1, approximately 24 hours post treatment. Approximately 200 horn flies were released again on Days 7, 14, 21, 28 and 36. Horn fly counts were performed at 5 hours and 24 hours after each infestation. Tables 14A and 14B below show the efficacy of the pour-on formulation of the invention.

[1] = system: Sarcoptes scabiei var. bovis; experiment: Pour-on efficacy against Sarcoptes scabiei var. bovis (mange mites) in cattle (Example 17); conditions: for % Reduction: live mite counts in scrapings
Procedure: The efficacy of two pour-on formulations of the invention comprising isoxazoline Compound A at doses of 2.5 mg/kg and 10 mg/kg were tested against natural and induced infestations with Sarcoptes scabiei var. bovis (mange mites) in cattle compared with an untreated control. Four healthy head of cattle weighing between 100 to 300 kg were used in each study group. Cattle in Group 1 were untreated (control). Cattle in Group 2 were treated on Day 0 with a pour-on formulation comprising Compound A at a concentration of 2.5% (w/v) in DES at a dose of 2.5 mg/kg; and cattle in Group 3 were treated on Day 0 with a pour-on formulation comprising Compound A at a concentration of 10% (w/v) in DES at a dose of 10 mg/kg. The formulation was applied by measuring the required amount of the solution into a marked disposable syringe and applying the material evenly along the mid-line of the back of each animal from the withers to the tail head.
Live (motile) Sarcoptes scabiei var. bovis (mange mites) were counted on days 7, 14, 20, 27, 34, 41, 48 and 55 in scrapings collected from the edges of active lesions or, if lesions regressed during the study, from the area where active lesions were at the commencement of the study. Scrapings were made from six sites with an area of at least 3 cm×3 cm in size on each animal. Tables 18A and 18B below show the efficacy of the two pour-on formulations against Sarcoptes scabiei var. bovis over 56 days. […] The long lasting efficacy of the pour-on formulations of the invention against Sarcoptes scabiei var. bovis from one topical treatment is unexpected and surprising.

O=C(CNC(=O)c1ccc(C2=NOC(c3cc(Cl)cc(C(F)(F)F)c3)(C(F)(F)F)C2)c2ccccc12)NCC(F)(F)F (centres unmarked) [Compound A, 4-[5-[3-chloro-5-(trifluoromethyl)phenyl]-4,5-dihydro-5-(trifluoromethyl)-3-isoxazolyl]-N-[2-oxo-2-[(2,2,2-trifluoroethyl)amino]ethyl]-1-naphthalanecarboxamide]
% Reduction (Ctenocephalides felis; Group 2: 6.0% in 40% DES/DMI, Day 1): 100.0% | % Reduction (Ctenocephalides felis; Group 2: 6.0% in 40% DES/DMI, Day 8): 100.0% | % Reduction (Ctenocephalides felis; Group 2: 6.0% in 40% DES/DMI, Day 15): 100.0% | % Reduction (Ctenocephalides felis; Group 2: 6.0% in 40% DES/DMI, Day 22): 100.0% | % Reduction (Ctenocephalides felis; Group 2: 6.0% in 40% DES/DMI, Day 29): 100.0% | % Reduction (Ctenocephalides felis; Group 2: 6.0% in 40% DES/DMI, Day 36): 100.0% | % Reduction (Ctenocephalides felis; Group 2: 6.0% in 40% DES/DMI, Day 43): 99.2% | % Reduction (Ctenocephalides felis; Group 3: 12% in 40% DES/DMI, Day 1): 100.0% | % Reduction (Ctenocephalides felis; Group 3: 12% in 40% DES/DMI, Day 8): 100.0% | % Reduction (Ctenocephalides felis; Group 3: 12% in 40% DES/DMI, Day 15): 100.0% | % Reduction (Ctenocephalides felis; Group 3: 12% in 40% DES/DMI, Day 22): 100.0% | % Reduction (Ctenocephalides felis; Group 3: 12% in 40% DES/DMI, Day 29): 100.0% | % Reduction (Ctenocephalides felis; Group 3: 12% in 40% DES/DMI, Day 36): 100.0% | % Reduction (Ctenocephalides felis; Group 3: 12% in 40% DES/DMI, Day 43): 100.0% | Efficacy against horn flies (Haematobia irritans; 24 hours after infestation through the end of the study (day 36)): at least 90% | % Reduction (Haematobia irritans; Day 1 (5 h)): 81.2% | % Reduction (Haematobia irritans; Day 2 (24 h)): 99.6% | % Reduction (Haematobia irritans; Day 7 (5 h)): 84.2% | % Reduction (Haematobia irritans; Day 8 (24 h)): 99.7% | % Reduction (Haematobia irritans; Day 14 (5 h)): 89.5% | % Reduction (Haematobia irritans; Day 15 (24 h)): 99.2% | % Reduction (Haematobia irritans; Day 21 (5 h)): 67.6% | % Reduction (Haematobia irritans; Day 22 (24 h)): 97.4% | % Reduction (Haematobia irritans; Day 28 (5 h)): 11.7% | % Reduction (Haematobia irritans; Day 29 (24 h)): 90.4% | efficacy against Sarcoptes scabiei var. bovis ([1]; 10% (w/v) formulation, day 14 through day 55): 100% | efficacy against Sarcoptes scabiei var. bovis ([1]; both pour-on formulations, starting on day 7 through at least day 56): higher than 95% | % Reduction ([1]; Group 2: pour-on 2.5% (w/v) in DES, 2.5 mg/kg, Day 7): 96.7% | % Reduction ([1]; Group 2: pour-on 2.5% (w/v) in DES, 2.5 mg/kg, Day 14): 98.2% | % Reduction ([1]; Group 2: pour-on 2.5% (w/v) in DES, 2.5 mg/kg, Day 20): 99.6% | % Reduction ([1]; Group 2: pour-on 2.5% (w/v) in DES, 2.5 mg/kg, Day 27): 100% | % Reduction ([1]; Group 2: pour-on 2.5% (w/v) in DES, 2.5 mg/kg, Day 34): 100% | % Reduction ([1]; Group 2: pour-on 2.5% (w/v) in DES, 2.5 mg/kg, Day 41): 100% | % Reduction ([1]; Group 2: pour-on 2.5% (w/v) in DES, 2.5 mg/kg, Day 48): 100% | % Reduction ([1]; Group 2: pour-on 2.5% (w/v) in DES, 2.5 mg/kg, Day 55): 100% | % Reduction ([1]; second line of the table, "Group 2", pour-on in DES, Day 7): 96.8% | % Reduction ([1]; second line of the table, "Group 2", pour-on in DES, Day 14): 100% | % Reduction ([1]; second line of the table, "Group 2", pour-on in DES, Day 20): 100% | % Reduction ([1]; second line of the table, "Group 2", pour-on in DES, Day 27): 100% | % Reduction ([1]; second line of the table, "Group 2", pour-on in DES, Day 34): 100% | % Reduction ([1]; second line of the table, "Group 2", pour-on in DES, Day 41): 100% | % Reduction ([1]; second line of the table, "Group 2", pour-on in DES, Day 48): 100% | % Reduction ([1]; second line of the table, "Group 2", pour-on in DES, Day 55): 100% | efficacy against Sarcoptes scabiei var. bovis ([1]; lower concentration pour-on formulation (Group 2), day 27 through the end of the study): 100%
